Laboratory results: patent US8664162B2, “Method for application of pesticides and plant growth regulators and nutrients to plants” (ArborSystems, priority 2009, dated 2014)

Columns and labels:
[1] = in vivo; settings: phylodendrons
Protocol: (§1) Leaves obtained from the treated and untreated trees 100 days after treatment were analyzed for imidacloprid by enzyme-linked immunosorbent assay (ELISA). Briefly, leaves were dried completely and leaf blade material was separated from stems and petioles. The leaf blade material was ground to a fine powder, and about 5 grams of the material placed in a vial. A measured amount of methanol was added so that the leaf material was covered and 1 to 2 ml of methanol was beyond the leaf material, for a total of 10 to 20 ml of methanol. The vials were mixed well at least twice a day for at least 48 hours. After at least 48 hours, 10 microliters of the liquid was transferred to a smaller vial, and 1.5 ml distilled water added, and the vials were mixed well. ELISA was performed using the Envirologix™ QuantiPlate Kit for Imidacloprid (EP 006).
Five ml of a formulation of 5% imidacloprid and 95% THFA was applied to the soil of each of two 4-inch diameter pots of phylodendrons. An equal number of control plants received no insecticide treatment. All of the plants were watered and kept in the same area. On the tenth day after treatment, leaves from treated and control plants were collected and tested for imidacloprid by ELISA as described in Example 1.

[2] = in vivo; settings: aspen tree
Protocol: The tree had not previously been treated with any pesticide. About 4 to 5 ml of a formulation containing 5% imidacloprid and 95% tetrahydrofurfuryl alcohol (THFA) was poured onto the soil around the base and then watered in.
as §1

Question: Which “Time for absorption by the roots and translocation to the leaves” value [1] does the source give for O=[N+]([O-])NC1=NCCN1Cc1ccc(Cl)nc1 [imidacloprid] here?
Answer: The value was at most 10 days.

Question: And the concentration at 10 days [1]?
Answer: The concentration at 10 days was 72000 ng/g.

Question: And the concentration at 100 days [2]?
Answer: The concentration at 100 days was 17000 ng/g.
